The procedure of test [1]: (§1) In order to assess removal of oxalate from a stock solution by lanthanum carbonate, an oxalate binding assay was developed. […] Further, the buffer conditions were designed to mimic the conditions present in the stomach and in the small intestine. Briefly, 50 mL of a stock sodium oxalate solution containing 8.5 g/L sodium chloride was adjusted to the desired pH using 5N HCl and the Mettler-Toledo DL58 autotitrator. Various combinations of oxalate and lanthanum carbonate concentrations were tested to determine which would maximize oxalate removal. Prior to the addition of the desired amount of lanthanum carbonate, a 2 mL sample was taken to act as a zero time point sample. The volume of buffer was made up to 50 mL again by adding 2 mL of stock oxalate buffer back to the pH adjusted buffer and the lanthanum carbonate was added. […] In addition, samples were assayed at 590 nm in a Falcon 96-well microplate using the Molecular Devices Spectramax 190 plate reader.
In order to maximize the accuracy of the results, the filtered samples were assayed at a 1/20 dilution.
The procedure described above was repeated at various pH's in the range of 3-7.

The conditions of test [2]: 0.1 M compound, 0.01 M oxalate, 0.1 M phosphate (10-fold excess). On the procedure: In addition, samples were assayed at 590 nm in a Falcon 96-well microplate using the Molecular Devices Spectramax 190 plate reader.
The conditions of test [3]: 0.1 M compound; 0.1 M phosphate, 0.01 M oxalate; pH 3 gradually increased to pH 7.
Excerpt: In order to simulate the passing of lanthanum oxalate through the digestive system, a final experiment was designed which would study both oxalate and phosphate removal as the pH changed from pH 3 (i.e. stomach pH) to pH 7 (i.e. approximate intestinal pH).
Removal of both oxalate and phosphate were monitored for ten minutes. […] Samples were taken at pH 4, 5, 6, and 7 in order to assess changes in the amount of oxalate and phosphate present in the solution.
Test [4] in a line: Oxalate binding assay of Example 1 with pH maintained with 1N NaOH (chlorides, acetates). The note with it: pH 7, pH maintained with 1N NaOH. On the procedure: as §1
Setting [5] is: pH 7, 0.1 M compound, 0.01 M sodium oxalate, 8.5 g/L sodium chloride.

Read-outs that look alike come from different tables or passages of the source.

On to `O=C([O-])[O-].O=C([O-])[O-].O=C([O-])[O-].[Ce+3].[Ce+3]` [cerium carbonate], for which, in test [1] (pH 3 (compared with pH 7), 0.1 M compound), the oxalate binding entry is “less effective”. Moreover, the “oxalate binding compared with 0.1 M lanthanum carbonate” value in test [1] (pH 7, 0.1 M compound) is given as “as effective as 0.1 M lanthanum carbonate”.
For the molecule `O.O.O.O.O.O=C([O-])[O-].O=C([O-])[O-].O=C([O-])[O-].[La+3].[La+3]` [lanthanum carbonate pentahydrate], the figures for the “competitive binding of oxalate vs phosphate” value in test [2] (pH 3.0) and in test [2] (pH 7.0) were “Preferential binding of phosphate” and “preferentially bind oxalate over phosphate”, respectively. The oxalate binding entry in test [1] (setting [5]) is on record as “can effectively bind oxalate”.
Regarding `O.O.O.O.O=C([O-])[O-].O=C([O-])[O-].O=C([O-])[O-].[La+3].[La+3]` [lanthanum carbonate tetrahydrate], the oxalate binding entry in test [1] (setting [5]) was “can effectively bind oxalate”. In addition, in test [1] (pH range 3-7), the “oxalate binding at various pH” value is “can bind oxalate in this pH range (3-7) with preferential binding at pH 6-7”.
With `O=C([O-])[O-].O=C([O-])[O-].O=C([O-])[O-].[La+3].[La+3]` [lanthanum carbonate], the “oxalate binding in the presence of excess phosphate during pH transition” value in test [3] was “can successfully bind oxalate”.
On to `[Cl][La]([Cl])[Cl]` [lanthanum chloride], for which, in test [4], the oxalate binding result is listed as “binds oxalate quite rapidly”.

For the origin of these results see US20070116782A1, “USE OF RARE EARTH COMPOUNDS FOR THE PREVENTION OF KIDNEY STONE DISEASE” (SHIRE INT[…] B.V., priority 2001, published 2007).
